The nature of data set [1]: Conversion of anhydrous diphosphate salt to monophosphate hydrate salt in water. It counts as physicochemical. Particulars: in the presence of water or aqueous co-solvent mixtures. From the text: The anhydrous diphosphate sale of AMG 706 is currently manufactured as a crystalline form. This crystalline form is used in the table formulations for clinical trials.
The monophosphate dihydrate salt was isolated and characterized by various analytical tools for its physico-chemical properties. Interconversion kinetics of anhydrous diphosphate to monophosphate dihydrate was studied under various conditions.

Data set [2] can be described thus: Solubility of AMG 706 anhydrous diphosphate salt in water over time. It counts as physicochemical. Particulars: thermodynamic from solid. As for the experimental part: AMG 706 anhydrous diphosphate (˜100 mg) salt was added to 2 mL of water and placed on a rotator stirrer. Multiple runs were performed each at different temperatures between about room temperature to about 40° C. Solid was isolated at various time points by vacuum filtering the supernatant and the material was air-dried overnight.

From US7989631B2, “Hydrate forms of AMG706” (Amgen Inc., priority 2006, dated 2011) come the findings set out here.

In general, solubility refers to the concentration that dissolves in the medium under given conditions.

As for `CC1(C)CNc2cc(NC(=O)c3cccnc3NCc3ccncc3)ccc21` [AMG 706 anhydrous diphosphate, N-(2,3-dihydro-3,3-dimethyl-1H-indol-6-yl)-2-[(4-pyridinylmethyl)amino]-3-pyridinecarboxamide], in data set [1], the “Solid-form stability (disproportionation/conversion)” value is “can disproportionate and convert to a more stable monophosphate hydrate salt”. The solubility at 0.5 hr in data set [2] (time 0.5 hr, RT, pH 2.6) amounted to 22 mg/mL. In data set [2] (time 1.0 hr, RT, pH 2.7), the solubility at 1 hr stood at 21 mg/mL. In addition, the solubility at 3 hr in data set [2] (time 3.0 hr, RT, pH 2.7) worked out at 21 mg/mL. Also, the solubility at 6 hr in data set [2] (40 C, pH 2.6) came to 20 mg/mL; in data set [2] (RT, pH 2.6) it was 21 mg/mL. The solubility at 24 hr in data set [2] (40 C, pH 3.0) turned out to be 26 mg/mL; in data set [2] (RT, pH 2.9), 21 mg/mL.
